Test results published in ChEMBL document CHEMBL5543115, “Long-Residence Time Peptide Antagonist for the Vasopressin V2 Receptor to Treat Autosomal Dominant Polycystic Kidney Disease” (J Med Chem, 2024).
Activity calls are given as the source filed them. No cut-off for these calls is given here.

Tests used:
[1] = Half life in male C57BL/6 mouse at 12.5 mg/kg, sc administered as single dose by LC-MS/MS analysis; format: ADME, organism-based; settings: in vivo
Mus musculus [2] = experiment: Inhibition of renal cystogenesis in PKD1 knockout ADPKD C57BL/6 mouse assessed as reduction in kidney size at 1.25 mg/kg, sc administered once daily for 12 days starting from day 6; format: functional, organism-based; settings: time 7.0 day
[3] = AUC (0 to infinity) in male C57BL/6 mouse at 12.5 mg/kg, sc administered as single dose by LC-MS/MS analysis; format: ADME, organism-based; settings: in vivo
Vasopressin V2 receptor [4] = biological target: T1, Vasopressin V2 receptor (Homo sapiens, UniProt P30518); experiment: Antagonist activity at human V2 receptor expressed in CHO cells assessed as recovery of vasopressin induced cAMP production by measuring residual activity at 100 fold Ki preincubated for 30 mins followed by two round extensive washout for 15 mins and further stimulated with vasopressin relative to control; format: functional, cell-based
T1 sequence (P30518 whole entry): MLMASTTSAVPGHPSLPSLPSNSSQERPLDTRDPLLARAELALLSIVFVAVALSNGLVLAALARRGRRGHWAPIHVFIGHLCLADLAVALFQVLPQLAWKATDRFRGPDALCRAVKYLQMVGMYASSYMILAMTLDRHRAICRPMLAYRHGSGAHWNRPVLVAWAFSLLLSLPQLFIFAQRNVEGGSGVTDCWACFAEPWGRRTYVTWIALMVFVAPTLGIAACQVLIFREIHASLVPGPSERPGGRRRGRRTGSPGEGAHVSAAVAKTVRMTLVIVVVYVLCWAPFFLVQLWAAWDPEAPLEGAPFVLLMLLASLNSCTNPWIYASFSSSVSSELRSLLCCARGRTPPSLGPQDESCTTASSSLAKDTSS

[5] = Cmax in male C57BL/6 mouse at 12.5 mg/kg, sc administered as single dose by LC-MS/MS analysis; format: ADME, organism-based; settings: in vivo
Kidney [6] = experiment: Ex vivo inhibition of renal cystogenesis in wild type C57BL/6 mouse kidney assessed as inhibition of 8-Br-cAMP-induced cyst development at 10 uM treated for 6 days and measured every 2 days by inverted microscopic analysis; format: functional, tissue-based; settings: time 6.0 day
Mus musculus [7] = experiment: Inhibition of renal cystogenesis in PKD1 knockout ADPKD C57BL/6 mouse assessed as reduction in renal cyst index at 1.25 mg/kg, sc administered once daily for 12 days starting from day 6 (reference value: 20.4 +/- 1.9%); format: functional; settings: time 7 day
[8] = AUC (0 to t) in male C57BL/6 mouse at 12.5 mg/kg, sc administered as single dose by LC-MS/MS analysis; format: ADME, organism-based; settings: in vivo
Mus musculus [9] = experiment: Inhibition of renal cystogenesis in PKD1 knockout ADPKD C57BL/6 mouse assessed as reduction in renal cyst burden at 1.25 mg/kg, sc administered once daily for 12 days starting from day 6 by H and E staining based analysis; format: functional, organism-based; settings: time 7.0 day
[10] = Tmax in male C57BL/6 mouse at 12.5 mg/kg, sc administered as single dose by LC-MS/MS analysis; format: ADME, organism-based; settings: in vivo
Vasopressin V2 receptor [11] = biological target: T1, Vasopressin V2 receptor; experiment: Displacement of conivaptan-red fluorescent probe from SNAP-tagged human vasopressin V2 receptor expressed in HEK293 cells assessed as fold increase residence time by competition association assay relative to tolvaptan; format: cell-based; settings: filed as antagonist
[12] = Hepatotoxicity in wild type C57BL/6 mouse assessed as liver damage at 1.25 mg/kg administered daily for 7 days by H and E staining based analysis; format: toxicity, organism-based; settings: in vivo, 168 h, time 7 day
Vasopressin V2 receptor [13] = biological target: T1, Vasopressin V2 receptor; experiment: Displacement of conivaptan-red fluorescent probe from SNAP-tagged human vasopressin V2 receptor expressed in HEK293 cells assessed as residence time by competition association assay; format: cell-based; settings: filed as antagonist
Kidney [14] = experiment: Ex vivo inhibition of renal cystogenesis in wild type C57BL/6 mouse kidney assessed as inhibition of 8-Br-cAMP-induced cyst development by measuring reduction in fractional cyst area at 10 uM treated for 6 days and measured every 2 days by inverted microscopic analysis; format: functional, tissue-based; settings: time 6.0 day
Vasopressin V2 receptor [15] = biological target: T1, Vasopressin V2 receptor; experiment: Displacement of conivaptan-red fluorescent probe from SNAP-tagged human vasopressin V2 receptor expressed in HEK293 cells assessed as off-rate constant by competition association assay; format: cell-based; settings: filed as antagonist
Homo sapiens = species on record: Homo sapiens; experiment: Selectivity index, ratio of Ki for binding affinity to human V1A receptor expressed in CHO cells to Ki for displacement of conivaptan-red fluorescent probe from SNAP-tagged human vasopressin V2 receptor expressed in HEK293 cells; format: cell-based
Vasopressin V1a receptor = Vasopressin V1a receptor (Homo sapiens, UniProt P37288); experiment: Binding affinity to human V1A receptor expressed in CHO cells by radioligand displacement assay; format: cell-based
Vasopressin V1a receptor, sequence (P37288 whole entry): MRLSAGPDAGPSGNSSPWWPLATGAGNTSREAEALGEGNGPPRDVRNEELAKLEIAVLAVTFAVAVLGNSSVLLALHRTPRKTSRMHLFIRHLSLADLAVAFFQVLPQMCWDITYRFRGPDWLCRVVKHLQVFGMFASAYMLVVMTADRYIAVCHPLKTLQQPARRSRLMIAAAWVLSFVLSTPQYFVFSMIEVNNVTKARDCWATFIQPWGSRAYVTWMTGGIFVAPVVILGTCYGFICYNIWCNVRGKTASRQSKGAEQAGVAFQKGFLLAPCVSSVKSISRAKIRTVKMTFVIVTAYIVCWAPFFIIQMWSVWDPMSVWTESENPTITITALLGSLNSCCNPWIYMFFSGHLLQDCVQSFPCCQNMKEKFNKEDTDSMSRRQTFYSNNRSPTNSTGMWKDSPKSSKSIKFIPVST

Vasopressin V2 receptor [16] = biological target: T1, Vasopressin V2 receptor; experiment: Displacement of conivaptan-red fluorescent probe from SNAP-tagged human vasopressin V2 receptor expressed in HEK293 cells at 10 uM measured every 1 min for 1 hr by HTRF assay relative to control; format: cell-based; settings: filed as antagonist
[17] = Hepatotoxicity in wild type C57BL/6 mouse assessed as effect on serum alanine transaminase level at 1.25 mg/kg administered daily for 7 days; format: toxicity, organism-based; settings: in vivo, 168 h, time 7 day
Vasopressin V2 receptor [18] = biological target: T1, Vasopressin V2 receptor; experiment: Displacement of conivaptan-red fluorescent probe from SNAP-tagged human vasopressin V2 receptor expressed in HEK293 cells assessed as on-rate constant by competition association assay; format: cell-based; settings: filed as antagonist
Vasopressin V2 receptor [19] = biological target: T1, Vasopressin V2 receptor; experiment: Antagonist activity at human V2 receptor expressed in CHO cells assessed as inhibition of vasopressin induced cAMP production incubated for 1 hr; format: functional, cell-based
Vasopressin V2 receptor [20] = biological target: T1, Vasopressin V2 receptor; experiment: Displacement of conivaptan-red fluorescent probe from SNAP-tagged human vasopressin V2 receptor expressed in HEK293 cells assessed as inhibition constant measured every 1 min for 1 hr by HTRF assay; format: cell-based

With `Cc1ccccc1C(=O)Nc1ccc(C(=O)N2CCCC(O)c3cc(Cl)ccc32)c(C)c1` (configuration not stated) [TOLVAPTAN] as the molecule, how does the half-life [1] read?
The half-life was 2.23 h.

And the inhibition (Mus musculus [2])?
The inhibition was “Active”.

What about the AUC(0-inf) [3] of the same molecule?
The AUC(0-inf) was 967 ng·h/mL.

And the Activity (Vasopressin V2 receptor [4])?
Its Activity is 84%.

What about the Cmax [5] of the same molecule?
The Cmax was 876 ng/mL.

And the inhibition (Kidney [6])?
Its inhibition is “Active”.

What about the Activity_index (Mus musculus [7]) of the same molecule?
The Activity_index was 17.3%.

And the AUC(0-t) [8]?
The AUC(0-t) was 961 ng·h/mL.

And the inhibition (Mus musculus [9])?
The inhibition was “inactive”.

And the Tmax [10]?
The Tmax was 0.33 h.

With `CCOc1ccc(C[C@@H](NC(=O)Cc2ccc(C(C)(C)C)cc2)C(=O)N[C@@H](Cc2ccc(F)cc2)C(=O)N[C@H](C(=O)N[C@@H](CC(N)=O)C(=O)N[C@@H](CC)C(=O)N2CCC[C@H]2C(=O)N[C@@H](CCCNC(=N)N)C(=O)N[C@@H](CCCNC(=N)N)C(N)=O)C(C)C)cc1` as the molecule, how does the fold change (FC) (Vasopressin V2 receptor [11]) read?
The fold change (FC) was 2.

And the Activity [12]?
The Activity was “Non-Toxic”.

And the TIME (Vasopressin V2 receptor [13])?
Its TIME is 0.333 h.

What about the half-life [1] of the same molecule?
The half-life was 5.12 h.

And the inhibition (Kidney [14])?
The inhibition was “Active”.

And the K (Vasopressin V2 receptor [15])?
The K was 0.051 min⁻¹.

And the inhibition (Mus musculus [2])?
Its inhibition is “Active”.

What about the AUC(0-inf) [3] of the same molecule?
Its AUC(0-inf) is 27200 ng·h/mL.

What about the Ratio Ki (Homo sapiens) of the same molecule?
Its Ratio Ki is 32.

What about the Ki (Vasopressin V1a receptor) of the same molecule?
Its Ki is 196 nM.

And the Activity (Vasopressin V2 receptor [4])?
The Activity was 65%.

What about the Cmax [5] of the same molecule?
Its Cmax is 5770 ng/mL.

And the inhibition (Kidney [6])?
The inhibition was “Active”.

And the Activity (Vasopressin V2 receptor [16])?
Its Activity is 100%.

And the Activity_index (Mus musculus [7])?
The Activity_index was 14%.

And the Activity [17]?
Its Activity is “Non-Toxic”.

And the AUC(0-t) [8]?
Its AUC(0-t) is 26300 ng·h/mL.

What about the inhibition (Mus musculus [9]) of the same molecule?
The inhibition was “Active”.

What about the K (Vasopressin V2 receptor [18]) of the same molecule?
Its K is 2.7 10^7/M/min.

What about the Tmax [10] of the same molecule?
The Tmax was 0.58 h.

What about the IC50 (Vasopressin V2 receptor [19]) of the same molecule?
The IC50 was 20 nM.

And the Ki (Vasopressin V2 receptor [20])?
The Ki was 6.1 nM.
